Results: the supplement of paper PMC10307832

Assays:
Assay in all cases: relative viability (nuclei count vs DMSO), 5 days (fraction); higher = more cells survive
[1] = compound: C1=CC=C(C(=C1)C2=CC=C(C=C2)C3=CSC4=C3C(=C(C(=O)N4)C#N)O)O + Nc1ncn([C@H]2C[C@H](O)[C@@H](CO)O2)c(=O)n1 [Decitabine] (partner 2 µM)
Procedure, shortened: (§1)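 The day after seeding in 1536-well plates, lung cancer cell lines were treated by pin tool with a single drug, or with a fixed anchor-drug dose together with five library-drug doses (not always all listed) in √10 steps. After 5 days, a combined fix-and-stain solution (final 0.05% Triton X-100, 1% formaldehyde, 1 ug/ml Hoechst) was added. Nuclei counted on 4× images gave relative viability as treated counts over vehicle counts, reported as the median of duplicate plates.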

TGX 221 + Olaparib = compound: CC1=CN2C(=O)C=C(N=C2C(=C1)C(C)NC3=CC=CC=C3)N4CCOCC4 [TGX 221] + O=C(c1cc(Cc2n[nH]c(=O)c3ccccc23)ccc1F)N1CCN(C(=O)C2CC2)CC1 [Olaparib] (partner 8 µM)
Procedure, shortened: as §1

[2] = compound: O=C(CCCCCCNC(=O)c1cnc(N(c2ccccc2)c2ccccc2)nc1)NO [Ricolinostat] + C[C@@H](Oc1cc(-c2cnn(C3CCNCC3)c2)cnc1N)c1c(Cl)ccc(F)c1Cl [Crizotinib] (partner 1 µM)
Procedure, shortened: as §1

[3] = compound: O=C(CCCCCCNC(=O)c1cnc(N(c2ccccc2)c2ccccc2)nc1)NO [Ricolinostat] + C[C@]1(O)C[C@@H](c2nc(-c3ccc4ccc(-c5ccccc5)nc4c3)c3c(N)nccn32)C1 [Linsitinib] (partner 1 µM)
Procedure, shortened: as §1

Row | Cell Line | relative viability ([1]; first compound 0.08 µM) | relative viability ([1]; first compound 0.253 µM) | relative viability ([1]; first compound 0.8 µM) | relative viability ([1]; first compound 2.53 µM) | relative viability ([1]; first compound 8 µM) | relative viability (TGX 221 + Olaparib; first compound 0.08 µM) | relative viability (TGX 221 + Olaparib; first compound 0.253 µM) | relative viability (TGX 221 + Olaparib; first compound 0.8 µM) | relative viability (TGX 221 + Olaparib; first compound 2.53 µM) | relative viability (TGX 221 + Olaparib; first compound 8 µM) | relative viability ([2]; first compound 0.08 µM) | relative viability ([2]; first compound 0.253 µM) | relative viability ([2]; first compound 0.8 µM) | relative viability ([2]; first compound 2.53 µM) | relative viability ([3]; first compound 0.08 µM) | relative viability ([3]; first compound 0.253 µM) | relative viability ([3]; first compound 0.8 µM) | relative viability ([3]; first compound 2.53 µM)
1 | 201T | 0.844 | 0.826 | 0.875 | 0.894 | 0.916 | 0.837 | 0.834 | 0.821 | 0.834 | 0.777 | 0.926 | 1.04 | 1.08 | 1.07 | 0.915 | 0.964 | 0.986 | 0.904
2 | A549 |  | 0.315 | 0.207 | 0.306 | 0.211 | 0.375 | 0.318 | 0.0939 | 0.301 | 0.422 | 0.757 | 0.714 | 0.581 | 0.291 |  | 0.533 | 0.538 | 0.562
3 | A-427 | 0.517 | 0.595 | 0.567 | 0.563 | 0.656 | 0.635 | 0.704 | 0.714 | 0.625 | 0.71 | 0.747 | 0.869 | 0.82 | 0.63 | 0.958 | 1.07 | 1.01 | 0.875
4 | ABC-1 | 1.4 | 1.03 | 1.03 | 0.899 | 1.07 | 0.8 | 0.86 | 0.908 | 0.781 | 0.876 | 1.01 | 1.16 | 0.836 | 0.705 | 0.616 | 0.772 | 0.944 | 0.669
5 | BEN | 0.605 | 0.745 | 0.771 | 0.717 | 0.653 | 1.16 | 0.887 | 1.05 | 0.882 | 1.01 | 0.745 | 0.789 | 0.903 | 0.68 | 0.795 | 0.751 | 0.953 | 0.592
6 | CAL-12T |  |  |  |  |  | 0.705 | 0.709 | 0.72 | 0.678 | 0.747 | 0.623 | 0.545 | 0.571 | 0.618 | 0.55 | 0.69 | 0.835 | 0.859
7 | COR-L23 | 0.469 | 0.54 | 0.429 | 0.431 | 0.417 | 0.368 | 0.326 | 0.405 | 0.315 | 0.334 | 0.506 | 0.545 | 0.571 | 0.277 | 0.726 | 0.854 | 0.897 | 0.543
8 | COR-L 105 | 0.715 | 0.684 | 0.793 | 0.664 | 0.564 | 0.649 | 0.696 | 0.712 | 0.584 | 0.557 | 0.669 | 0.854 | 0.643 | 0.646 | 0.761 | 0.92 | 1.1 | 1.11
9 | Calu-6 |  |  |  |  |  | 0.55 | 0.513 | 0.549 | 0.536 | 0.512 | 0.712 | 0.766 | 0.638 | 0.51 | 0.817 | 0.89 | 0.891 | 0.766
10 | ChaGo-K-1 | 0.507 | 0.58 | 0.587 | 0.535 | 0.506 | 0.399 | 0.387 | 0.374 | 0.359 | 0.426 | 1.13 | 1.08 | 1.05 | 0.997 |  |  |  | 
11 | EBC-1 |  |  |  |  |  | 0.664 | 0.697 | 0.616 | 0.676 | 0.55 | 0.186 | 0.163 | 0.164 | 0.224 | 0.737 | 0.713 | 0.911 | 0.328
12 | EKVX | 0.396 | 0.412 | 0.857 | 0.695 | 0.326 | 0.75 | 0.758 | 0.792 | 0.691 | 0.709 |  | 0.762 | 0.958 | 1.01 |  | 1.01 | 0.921 | 1.15
13 | EMC-BAC-2 | 0.893 |  | 0.979 | 0.967 | 0.933 | 0.463 | 0.453 | 0.526 | 0.418 | 0.472 | 0.697 | 0.698 | 0.695 | 0.681 | 0.731 | 0.78 | 0.832 | 0.885
14 | EPLC-272H | 0.385 |  | 0.329 | 0.356 | 0.35 | 0.786 | 0.582 | 0.845 | 0.483 | 0.504 |  | 0.936 | 0.82 | 0.622 |  | 0.894 | 1.21 | 0.772
15 | H3255 | 0.481 | 0.618 |  | 0.644 | 0.585 | 0.508 | 0.536 | 0.561 | 0.547 | 0.499 | 0.822 | 0.823 | 0.804 | 0.749 | 0.78 | 0.879 | 0.878 | 0.854
16 | HARA | 0.592 | 0.769 | 0.596 | 0.548 | 0.459 | 0.658 | 0.917 | 0.868 | 0.629 | 0.711 | 0.925 | 0.948 | 0.926 | 0.712 | 0.813 | 0.902 | 0.886 | 0.81
17 | HCC-15 | 0.444 | 0.671 | 0.625 | 0.814 | 0.494 | 0.641 | 0.728 | 0.756 | 0.704 | 0.719 | 0.775 | 0.801 | 0.799 | 0.84 | 0.847 | 0.866 | 0.938 | 0.834
18 | HCC-44 | 1.01 | 1.05 | 0.985 | 0.895 | 0.934 | 1 | 1.04 | 1.05 | 1.08 | 1 | 0.836 | 0.753 | 0.774 | 0.592 | 0.575 | 0.682 | 0.589 | 0.545
19 | HCC-78 | 0.75 | 0.82 | 0.655 | 0.808 | 0.642 | 0.801 | 0.69 | 0.753 | 0.618 | 0.623 |  | 0.288 | 0.279 | 0.25 |  | 0.551 | 0.417 | 0.271
